Results as given in ChEMBL document CHEMBL1134103.

Target: Peptidyl-prolyl cis-trans isomerase A (Homo sapiens) (UniProt P62937)
Test: Permeation ratio of cell-free CyP binding to intracellular CyP binding
Format: cell-based

Peptidyl-prolyl cis-trans isomerase A (Homo sapiens), sequence (P62937 whole entry, looked up): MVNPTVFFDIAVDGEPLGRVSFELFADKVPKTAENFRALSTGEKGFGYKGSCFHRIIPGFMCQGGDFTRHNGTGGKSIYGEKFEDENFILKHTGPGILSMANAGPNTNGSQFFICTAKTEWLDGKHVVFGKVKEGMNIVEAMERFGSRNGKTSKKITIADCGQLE

Ratio | Structure (SMILES)
65 | CC[C@H]1C[C@H](C)[C@@]2(NC1=O)O[C@@H](C[C@H](O)[C@@H](C)CCCCCC(C)[C@@H]1CCCCC[C@H](O)[C@H](C)[C@@H](O)[C@@H](CCC(C)=O)C(=O)N[C@@H](C(C)C)C(=O)N[C@@H](Cc3cccc(O)c3)C(=O)N3CCC[C@H](N3)C(=O)O1)[C@H](C)[C@H](O)[C@@H]2C (stereo partly drawn)
270 | CC[C@H]1C[C@H](C)[C@@]2(NC1=O)O[C@@H](C[C@H](O)[C@@H](C)CCCCCC(C)[C@@H]1CCCCC[C@H](O)[C@H](C)[C@@H](O)[C@@H](CCC(C)=O)C(=O)N[C@@H](C(C)C)C(=O)N[C@@H](Cc3ccccc3)C(=O)N3CCC[C@H](N3)C(=O)O1)[C@H](C)[C@H](O)[C@@H]2C (stereo partly drawn)
0.8 | CCCC[C@H]1C(=O)N[C@@H](C(C)C)C(=O)N[C@@H](Cc2cccc(O)c2)C(=O)N2CCC[C@H](N2)C(=O)O[C@H](/C(C)=C/C=C/CC[C@H](C)[C@@H](O)C[C@@H]2O[C@@]3(NC(=O)[C@@H](CC)C[C@@H]3C)[C@@H](C)[C@@H](O)[C@H]2C)C/C=C/C=C/[C@H](O)[C@H](C)[C@H]1O
